Tested on: Hartley male guinea pigs
Experiment: Blood cholesterol level lowering effect in guinea pigs, oral administration once a day for 14 days
Type: in vivo, guinea pig
Conditions: ezetimibe 3 mg/kg, oral once a day for 14 days, blood collected after 18 h fast; for Reduction ratio (%) of blood cholesterol level: vs control group
Description: The blood cholesterol level lowering effect when a calcium salt of pitavastatin and ezetimibe were coadministered was measured by the below-described testing method. For comparison, a calcium salt of atorvastatin was used instead of the calcium salt of pitavastatin and the effect brought about by the concomitant use of two medicaments was measured in a similar manner. • 1. Animals Provided for the Test and Their Breeding Environment
Six-week-old Hartley male guinea pigs (purchased from Nippon SLC) were provided for the test. Throughout the test period, they were bred in a breeding room maintained at a light-dark cycle (a light term by a room light: from 7:00 am to 7:00 pm), a temperature of 23 ±3° C. and a humidity of 55 ±15% and fed with a solid feedstuff (“RC-4”, product of Oriental Yeast Industry) and tap water ad libitum. • 2. Preparation of Medicament
Treatment method according to the invention: The calcium salt of pitavastatin and ezetimibe were suspended in a 0.5 wt. % aqueous solution of carboxymethylcellulose sodium (product of Iwai Chemicals Company) and their concentrations were adjusted to 1 mg/mL and 3 mg/mL, respectively. Since the calcium salt of pitavastatin contained 9.43 wt. % of water, 1.1 times the weight of the dosage was weighed for correction. The suspension was refrigerated (4° C.) in a light resistant bottle and adjustment was conducted every 7 days.
Treatment method for comparison: In a similar manner to that described above except the use of the calcium salt of atorvastatin instead of the calcium salt of pitavastatin, a medicament (atorvastatin calcium 5 mg/mL) for comparison test was prepared. • 3. Testing Method
The treatment method according to the present invention: Twenty four guinea pigs were classified into four groups (each consisting of 6 guinea pigs), that is, a control group, a single administration group of pitavastatin calcium salt (1 mg/kg), a single administration group of ezetimibe (3 mg/kg), and a coadministration group of pitavastatin calcium salt (1 mg/kg) and ezetimibe (3 mg/kg) so that they differ little in the total blood cholesterol level and blood triglyceride level. These two medicaments were each administered at a dose of 1 mL/kg once a day and this administration was repeated for 14 days. To the control group, a 0.5 wt. % aqueous solution (1 mL/kg) of carboxymethylcellulose sodium was orally administered. In each group, the guinea pigs were fasted for 18 hours after the final administration and then the blood was collected from them to measure the blood cholesterol level.
Treatment method for comparison: twenty four guinea pigs were tested in a similar manner to the method according to the invention. The dosage of the calcium salt of atorvastatin was 5 mg/kg in each of the group nourished by the single use of atorvastatin calcium salt and the group nourished by the concomitant use of atorvastatin calcium salt and ezetimibe. • 4. Static Analysis and Data Processing Method
Multigroup comparison between the control group and the medicament administered group was performed using Bartlett's variance analysis—Dunnett's multiple comparative assay. A difference with a significance level less than 5% was regarded as significant. • 5. Results
A reduction ratio (%) is a value represented by ((total blood cholesterol level of control group on average−total blood cholesterol level of each group on average)/(total blood cholesterol level of control group on average))×100, while a relative index is a value represented by (total blood cholesterol level of each group on average)/(total blood cholesterol level of control group on average).

[1] = Table 1 test: pitavastatin Ca 1 mg/kg
[2] = Table 2 comparison test: atorvastatin Ca 5 mg/kg

SMILES | Relative index (total blood cholesterol level of group / control group) [1] | Reduction ratio (%) of blood cholesterol level [1] [%] | Relative index (total blood cholesterol level of group / control group) [2] | Reduction ratio (%) of blood cholesterol level [2] [%]
O=C1[C@H](CC[C@H](O)c2ccc(F)cc2)[C@@H](c2ccc(O)cc2)N1c1ccc(F)cc1 [ezetimibe, (3R,4S)-1-(4-fluorophenyl)-3-[(3S)-3-(4-fluorophenyl)-3-hydroxypropyl]-4-(4-hydroxyphenyl)-2-azetidinone] | 0.79 | 21 | 0.81 | 19
CC(C)c1c(C(=O)Nc2ccccc2)c(-c2ccccc2)c(-c2ccc(F)cc2)n1CC[C@@H](O)C[C@@H](O)CC(=O)O [atorvastatin Ca] | – | – | 0.77 | 23
O=C(O)C[C@H](O)C[C@H](O)/C=C/c1c(C2CC2)nc2ccccc2c1-c1ccc(F)cc1 [pitavastatin Ca, (3R,5S,6E)-7-[2-cyclopropyl-4-(4-fluorophenyl)-3-quinolyl]-3,5-dihydroxy-6-heptenoic acid] | 0.71 | 29 | – | –

Reference: patent publication US7459447B2, “Method for treating hyperlipidemia” (Kowa Co., Ltd., priority 2004, dated 2008)
